Data from patent US12005092B2, “Herbal composition for breast cancer prevention” (priority 2021, dated 2024).
“And” between values parts separate entries of the source, which are not always exact repeats. Identical values can stand only once.

System: MCF-7 cells
Assay: MCF-7 cell viability, PrestoBlue Cell Viability Reagent
Assay type: cell-based, human
Conditions: individual ingredients, MCF-7, 2 mg/0.2 ml
Experimental: In order to assess this activity, a well-established line of breast cancer cells used in cancer research was selected. MCF-7 is a widely studied cancer cell line derived from breast adenocarcinoma, it was proven to be a suitable model cell line for breast cancer investigations worldwide, including those regarding anticancer drugs.
The cells were cultured with growth medium and seeded in two 96 well plates incubated at 37 Celsius. The HCBCP solution was prepared by dissolving the powder in DPBS as per Table 1, below.
The obtained solutions were sterilized by 0.22-micron filtration.
An amount of 0.2 ml was applied in each test tube providing 2 mg of HCBCP. […]
After incubation period of 24 and 48 hours, cell viability was measured using PrestoBlue™ Cell Viability Reagent, according to manufacturer instructions.
Fluorescence was detected at excitation wavelength of 560 nm and an emission of 590 nm, using TECAN SPARK 10M microplate reader, at 24 and 48 hours after application. The fluorescence data is expressed as percentage of cell viability (%) compared to vehicle control.
Percentage of cell viability was calculated using the following formula: [(fluorescence of treated cells—mean background fluorescence)/(fluorescence of cells with vehicle control—mean background fluorescence)]×100, at 24 and 48 Hours after Application. […]

Compound: O=c1c(O)c(-c2ccc(O)c(O)c2)oc2cc(O)cc(O)c12 [BF 2 Q, Quercetin]
- Mean cell viability (%) (24 h (Table 3)): 42.10%
- Cell Viability (%) (24 h, single replicates (Table 3)): 44.43% and 44.39% and 40.25% and 39.33%
